Source: PubChem BioAssay AID330 (DTP/NCI, 2004)
Several values for one entry are separate records, joined by “and”; a condition that tells them apart may be missing. Equal entries are not always repeated. Toxic doses and inconclusive results are not listed. The calls were made as follows: active = survival T/C of 150% or more; inactive = T/C below 125% in these data.

Test system: P388 leukemia ip, CD2F1 mice, survival T/C
Experiment: NCI In Vivo Anticancer Drug Screen. Data for tumor model P388 Leukemia (intraperitoneal) in CD2F1 (CDF1) mice
Conditions: endpoint: median survival time, higher = longer survival
Procedure, shortened: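 Mice carrying the transplanted tumor received test compound or vehicle. Survival was recorded in each group, and the value is the treated-group measurement divided by that of the vehicle-treated control group.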

[1] = dose: 60.0 mg/kg/injection, schedule: Q01DX005 (ip), vehicle: saline with Tween-80
[2] = dose: 120.0 mg/kg/injection, schedule: Q01DX005 (ip), vehicle: saline with Tween-80
[3] = dose: 100.0 mg/kg/injection, schedule: Q01DX009 (ip), vehicle: saline with Tween-80
[4] = dose: 100.0 mg/kg/injection, schedule: Q01DX009 (ip), vehicle: saline
[5] = dose: 200.0 mg/kg/injection, schedule: Q01DX009 (ip), vehicle: saline
[6] = dose: 50.0 mg/kg/injection, schedule: Q01DX009 (ip), vehicle: saline with Tween-80
[7] = dose: 200.0 mg/kg/injection, schedule: Q01DX009 (ip), vehicle: saline with Tween-80
[8] = dose: 50.0 mg/kg/injection, schedule: Q01DX005 (ip), vehicle: saline with Tween-80
[9] = dose: 100.0 mg/kg/injection, schedule: Q01DX005 (ip), vehicle: saline with Tween-80
[10] = dose: 200.0 mg/kg/injection, schedule: Q01DX005 (ip), vehicle: saline with Tween-80
[11] = dose: 240.0 mg/kg/injection, schedule: Q01DX005 (ip), vehicle: saline with Tween-80

Measured: T/C

O=C(CN1CCN(c2ccccc2)CC1)n1nnc2ccccc21
inactive: [1] 93 % of control | [2] 87 % of control

OC(CI)C(O)C(O)C(O)CI (stereo unspecified)
inactive: [3] 105 % of control and 115 % of control | [4] 98 % of control | dose: 100.0 mg/kg/injection, schedule: Q04DX003 (ip), vehicle: saline with Tween-80 100 % of control and 104 % of control | dose: 132.0 mg/kg/injection, schedule: Q01DX009 (ip), vehicle: saline with Tween-80 122 % of control | [5] 91 % of control | dose: 200.0 mg/kg/injection, schedule: Q04DX003 (ip), vehicle: saline with Tween-80 104 % of control and 113 % of control | dose: 400.0 mg/kg/injection, schedule: Q01DX009 (ip), vehicle: saline 105 % of control | dose: 400.0 mg/kg/injection, schedule: Q04DX003 (ip), vehicle: saline with Tween-80 100 % of control and 113 % of control | dose: 500.0 mg/kg/injection, schedule: Q01DX009 (ip), vehicle: saline 96 % of control

Nc1nnc2nc(CC(=O)c3ccccc3)c(CC(=O)c3ccccc3)nn12
inactive: dose: 60.0 mg/kg/injection, schedule: Q01DX005 (ip), vehicle: saline 95 % of control | dose: 120.0 mg/kg/injection, schedule: Q01DX005 (ip), vehicle: saline 94 % of control | dose: 240.0 mg/kg/injection, schedule: Q01DX005 (ip), vehicle: saline 100 % of control

CCOC(=O)N(CCCl)C(=O)C(C)C
inactive: dose: 100.0 mg/kg/injection, schedule: Q01DX001 (ip), vehicle: saline with Tween-80 104 % of control | dose: 200.0 mg/kg/injection, schedule: Q01DX001 (ip), vehicle: saline with Tween-80 100 % of control | dose: 400.0 mg/kg/injection, schedule: Q01DX001 (ip), vehicle: saline with Tween-80 104 % of control

COc1ccc2c(C)c3[n+](cc2c1OC)CCc1cc2c(cc1-3)OCO2
inactive: dose: 0.4 mg/kg/injection, schedule: Q01DX005 (ip), vehicle: saline 95 % of control | dose: 0.78 mg/kg/injection, schedule: Q04DX003 (ip), vehicle: water 102 % of control | dose: 0.8 mg/kg/injection, schedule: Q01DX005 (ip), vehicle: saline 101 % of control | dose: 1.56 mg/kg/injection, schedule: Q04DX003 (ip), vehicle: water 103 % of control | dose: 1.6 mg/kg/injection, schedule: Q01DX005 (ip), vehicle: saline 107 % of control | dose: 3.13 mg/kg/injection, schedule: Q04DX003 (ip), vehicle: water 106 % of control | dose: 6.25 mg/kg/injection, schedule: Q04DX003 (ip), vehicle: water 97 % of control | dose: 12.5 mg/kg/injection, schedule: Q04DX003 (ip), vehicle: water 97 % of control

O=C1CCC(=O)N2c3ccccc3-c3ccccc3N12
inactive: [6] 95 % of control | [3] 93 % of control | [7] 93 % of control

O=C(CCCCCCCCc1cccc2c1OCO2)c1c(O)cccc1O
inactive: dose: 2.0 mg/kg/injection, schedule: Q01DX009 (ip), vehicle: Klucel (hydroxypropylcellulose) (HPC) 103 % of control | dose: 4.0 mg/kg/injection, schedule: Q01DX009 (ip), vehicle: Klucel (hydroxypropylcellulose) (HPC) 95 % of control | dose: 8.0 mg/kg/injection, schedule: Q01DX009 (ip), vehicle: Klucel (hydroxypropylcellulose) (HPC) 109 % of control | dose: 16.0 mg/kg/injection, schedule: Q01DX009 (ip), vehicle: Klucel (hydroxypropylcellulose) (HPC) 105 % of control

CCOC(=O)N1C=CC(=C2C(=C3C=CN(C(=O)OCC)C=C3)C(=C3C=CN(C(=O)OCC)C=C3)C2=C2C=CN(C(=O)OCC)C=C2)C=C1
inactive: dose: 25.0 mg/kg/injection, schedule: Q01DX005 (ip), vehicle: saline with Tween-80 100 % of control | [8] 101 % of control and 102 % of control and 117 % of control | [9] 100 % of control and 105 % of control and 109 % of control | [10] 99 % of control

CCOC(=O)C(CNC(=O)c1ccccc1)(NC(C)=O)C(=O)OCC
inactive: dose: 12.5 mg/kg/injection, schedule: Q01DX009 (ip), vehicle: other 121 % of control | dose: 25.0 mg/kg/injection, schedule: Q01DX009 (ip), vehicle: other 121 % of control | dose: 50.0 mg/kg/injection, schedule: Q01DX009 (ip), vehicle: other 112 % of control | dose: 100.0 mg/kg/injection, schedule: Q01DX009 (ip), vehicle: other 97 % of control | dose: 200.0 mg/kg/injection, schedule: Q01DX009 (ip), vehicle: other 103 % of control

CCCCCN(CCCCC)CC(O)c1ccc(Cl)c2ccccc12 (stereo unspecified)
inactive: [8] 103 % of control | [9] 106 % of control | [10] 103 % of control

O=c1c2nccnc2nc2n1CCCS2
inactive: dose: 100.0 mg/kg/injection, schedule: Q01DX009 (ip), vehicle: Klucel (hydroxypropylcellulose) (HPC) 99 % of control | dose: 200.0 mg/kg/injection, schedule: Q01DX009 (ip), vehicle: Klucel (hydroxypropylcellulose) (HPC) 100 % of control

CONC(=O)Cc1cccc(OC)c1
inactive: dose: 25.0 mg/kg/injection, schedule: Q01DX009 (ip), vehicle: saline with Tween-80 104 % of control | [6] 114 % of control | [3] 98 % of control

CCCCn1cnc2c(cnn2C)c1=N
inactive: dose: 100.0 mg/kg/injection, schedule: Q04DX002 (ip), vehicle: saline 97 % of control | dose: 200.0 mg/kg/injection, schedule: Q04DX002 (ip), vehicle: saline 97 % of control

NC1=C(O)C(=O)C(c2cccc(O)c2)O1 (stereo unspecified)
inactive: [1] 103 % of control | [2] 100 % of control | [11] 103 % of control

COc1ccc(CCNC(=O)c2ccc(CSc3ccc(Cl)cc3)o2)cc1OC
inactive: [8] 105 % of control | [9] 100 % of control | [10] 93 % of control

Cn1cc(F)c(=O)n(C)c1=O
inactive: dose: 30.0 mg/kg/injection, schedule: Q04DX002 (ip), vehicle: saline 96 % of control | dose: 60.0 mg/kg/injection, schedule: Q04DX002 (ip), vehicle: saline 100 % of control | dose: 120.0 mg/kg/injection, schedule: Q04DX002 (ip), vehicle: saline 98 % of control | dose: 125.0 mg/kg/injection, schedule: Q04DX002 (ip), vehicle: saline 96 % of control | dose: 240.0 mg/kg/injection, schedule: Q04DX002 (ip), vehicle: saline 99 % of control | dose: 250.0 mg/kg/injection, schedule: Q04DX002 (ip), vehicle: saline 105 % of control

CN(C)/C=N/c1c(C#N)c(-c2ccccc2)c(-c2ccccc2)n1-c1ccccc1
inactive: [6] 97 % of control | dose: 50.0 mg/kg/injection, schedule: Q01DX009 (ip), vehicle: saline 98 % of control | [4] 93 % of control | [7] 96 % of control | [5] 87 % of control

Cn1c(=O)nc2n(C)c3ccccc3cc-2c1=O
inactive: [6] 116 % of control | [3] 116 % of control | [7] 113 % of control

CN(C)c1ccc(P(=O)(O)O)cc1
inactive: [8] 96 % of control | [9] 99 % of control | [10] 91 % of control

CCCCCCCCCCCCCCCCSC1=CC(=O)C(Cl)=C(Cl)C1=O
inactive: dose: 10.0 mg/kg/injection, schedule: Q01DX009 (ip), vehicle: Klucel (hydroxypropylcellulose) (HPC) 96 % of control | dose: 20.0 mg/kg/injection, schedule: Q01DX009 (ip), vehicle: Klucel (hydroxypropylcellulose) (HPC) 96 % of control | dose: 40.0 mg/kg/injection, schedule: Q01DX009 (ip), vehicle: Klucel (hydroxypropylcellulose) (HPC) 95 % of control

O=C1CCC2CCC1N2 (stereo unspecified)
inactive: dose: 50.0 mg/kg/injection, schedule: Q01DX005 (ip), vehicle: saline 100 % of control | dose: 100.0 mg/kg/injection, schedule: Q01DX005 (ip), vehicle: saline 100 % of control | dose: 200.0 mg/kg/injection, schedule: Q01DX005 (ip), vehicle: saline 100 % of control

Cc1cccc(NC(=O)Oc2ccc(Cl)cc2C(=O)c2ccccc2)c1
inactive: [1] 97 % of control | [2] 98 % of control | [11] 105 % of control

CCCCSc1ccc(N=[N+]([O-])c2ccc(SCCCC)nc2SCCCC)c(SCCCC)n1
inactive: [6] 94 % of control | [3] 90 % of control | [7] 88 % of control

O=Nc1sc(=S)n(N2CCCCC2)c1O
inactive: dose: 50.0 mg/kg/injection, schedule: Q01DX005 (ip), vehicle: Klucel (hydroxypropylcellulose) (HPC) 99 % of control | dose: 100.0 mg/kg/injection, schedule: Q01DX005 (ip), vehicle: Klucel (hydroxypropylcellulose) (HPC) 96 % of control

C=CC1CCCCC1=O (stereo unspecified)
inactive: [8] 110 % of control | [9] 111 % of control | [10] 111 % of control
